pKi: −log10 of the molar value.
Assays:
[1] = tested on: ATP generating reaction system; test: Efficacy of the ATP generating reaction system (rates of NADH oxidation on addition of ADP); format: biochemical; conditions: at the concentrations shown in FIGS. 1a and 1b; addition of 10-50 μM ADP
[2] = target: T1, canine kidney (Na^+ +K^+)ATPase (Canis lupus familiaris, UniProt P50997); test: (Na+ +K+)ATPase activity assay coupled to NADH oxidation (A340); format: biochemical, canine (dog); conditions: for time course of inhibition of (Na^+ +K^+)ATPase activity: FIG. 1a/1b, continuous recording of A340, 37° C.
T1 construct: suspending canine kidney (Na^+ +K^+)ATPase; purchased Sigma Chemical; host or cells: canine kidney (tissue-derived membrane preparation)
Description: The (Na^+ +K^+)ATPase preparation employed in the assay of this example comprised unsealed membrane sheets as described in Jorgensen, P. L. Biochim. Biophys. Acta 356: 36-52 (1974). Thus, it was not able to distinguish between an external and an internal site of action for the inhibitor.
The ATPase assay solution employed contained 400 μl of an ATPase cocktail and 580 μl of water. The ATPase cocktail was such that the final reaction conditions were (in 1.0 ml) as follows: 20 mM KCl; 100 mM NaCl; 4.5 mM MgSO4; 5 mM EGTA; 3 mM Na2 ATP; 1.2 mM tricyclohexylammonium phosphoenolpyruvate (PEP), 0.25 NADH, 40 mM trimethylaminoethanesulphonic acid (TES)-Tris, pH 7.4; 1.2 units lactate dehydrogenase (LDH); and 1.2 units pyruvate kinase (PK), (ATP, PEP, NADH, LDH and PK were purchased from Boehringer Mannheim Biochemicals; LDG and PK enzymes were obtained as glycerol suspensions.)
The (Na^+ +K^+)ATPase suspension was prepared for assay by suspending canine kidney (Na^+ +K^+)ATPase (obtained from Sigma Chemical having a specific activity of 5-6 μmol per min per mg protein and containing a ouabain-insensitive Mg^2+ -ATPase activity which was less than 2% of the total steady-state ATPase activity) in 500 μM Na4 EDTA, 10 mM (TES)-Tris pH 7.4, at a protein concentration of 150 μg/ml. The resuspended enzyme was incubated at 25° C. for 3 hours and then stored on ice.
The assay was initiated by the rapid addition of 20 μl of ATPase suspension (3 μg protein) to 980 μl of ATPase assay solution in a 1.0 ml cuvette at 37° C. The decrease in ultraviolet light absorbance at 340 nm (A340) due to NADH oxidation (ε=6.22×10^3 1 mol^-1 cm^-1) was continuously recorded using a Beckman Model 25 UV-VIS recording spectrophotometer.
FIG. 1a illustrates ATPase inhibition by ouabain. […] The control contained an appropriate quantity of DMSO.
FIG. 1b illustrates ATPase inhibition by vanadate. […] The control contained in appropriate quantity of water. […]
Percent inhibition was calculated as: [formula]

SMILES	effect on the efficacy of the ATP generating reaction system [1]	time course of inhibition of (Na^+ +K^+)ATPase activity [2]	pKi ([2]; from steady-state levels of (Na^+ +K^+)ATPase activity at various vanadate concentrations, 37° C.)
C[C@@H]1O[C@@H](O[C@H]2C[C@@H](O)[C@]3(CO)[C@H]4[C@H](O)C[C@]5(C)[C@@H](C6=CC(=O)OC6)CC[C@]5(O)[C@@H]4CC[C@]3(O)C2)[C@H](O)[C@H](O)[C@H]1O [ouabain]	Neither ouabain nor vanadate, at the concentrations shown in FIGS. 1a and 1b, had a significant effect	no significant effect on the reaction for the first 30 seconds, and thereafter causes a progressive, dose-dependent increase in inhibition	
[Na+].[Na+].[Na+].[O]=[V]([O-])([O-])[O-] [vanadate, Na3 VO4]	Neither ouabain nor vanadate, at the concentrations shown in FIGS. 1a and 1b, had a significant effect	the effect of vanadate was apparent in the first few seconds of the reaction	6.05
